The supplement of paper PMC3937590

Assays:
Assay in all cases: -log10 GI50 (growth inhibition 50%) (-log10(M)); higher = more potent growth inhibition
[1] = system: 600MPE
Procedure, shortened: (§1)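 The reported figure is the negative logarithm of GI50, defined as the molar concentration that produces the set level of growth inhibition. The logarithm is base 10. It comes from a Gompertz curve fitted by nonlinear least squares to 72-hour luminescence data from breast cancer cell lines given nine doses in 1:5 serial dilution, in triplicate, with a time-zero plate as reference. A < qualifier marks values equal to the top dose.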

[2] = system: AU565
Procedure, shortened: as §1

[3] = system: BT20
Procedure, shortened: as §1

[4] = system: BT474
Procedure, shortened: as §1

[5] = system: BT483
Procedure, shortened: as §1

[6] = system: CAMA1
Procedure, shortened: as §1

[7] = system: HCC1143
Procedure, shortened: as §1

[8] = system: HCC1187
Procedure, shortened: as §1

[9] = system: HCC1806
Procedure, shortened: as §1

[10] = system: HCC38
Procedure, shortened: as §1

[11] = system: HS578T
Procedure, shortened: as §1

[12] = system: MCF7
Procedure, shortened: as §1

[13] = system: MDAMB175VII
Procedure, shortened: as §1

[14] = system: MDAMB415
Procedure, shortened: as §1

[15] = system: MDAMB453
Procedure, shortened: as §1

[16] = system: SKBR3
Procedure, shortened: as §1

[17] = system: SUM159PT
Procedure, shortened: as §1

[18] = system: SUM229PE
Procedure, shortened: as §1

[19] = system: T47D
Procedure, shortened: as §1

[20] = system: ZR751
Procedure, shortened: as §1

| SMILES | -log10 GI50 [3] | -log10 GI50 [4] | -log10 GI50 [5] | -log10 GI50 [7] | -log10 GI50 [8] | -log10 GI50 [9] | -log10 GI50 [10] | -log10 GI50 [12] | -log10 GI50 [13] | -log10 GI50 [14] | -log10 GI50 [15] | -log10 GI50 [16] | -log10 GI50 [19] | -log10 GI50 [1] | -log10 GI50 [2] | -log10 GI50 [6] | -log10 GI50 [11] | -log10 GI50 [17] | -log10 GI50 [18] | -log10 GI50 [20] |
| --- | --- | --- | --- | --- | --- | --- | --- | --- | --- | --- | --- | --- | --- | --- | --- | --- | --- | --- | --- | --- |
| CNC(=O)c1cc(Oc2ccc(NC(=O)Nc3ccc(Cl)c(C(F)(F)F)c3)cc2)ccn1 [Sorafenib] | 4.2 | 4.16 | 4.92 | 4.23 | 4.49 | 4.23 | 4.07 | 4.19 | 4.46 | 3.96 | 3.09 | 4.35 | 4.59 | 4.36 | 3.94 | 4.22 | < 3 | 4.66 | 5 | 4.43 |
| CCNCCCCNCCCCNCCCCNCCCCNC/C=C/CNCCCCNCCCCNCCCCNCCCCNCC | 6.66 | 6.02 | 6.25 | 6.88 | 6.15 | 6.71 | 6.81 | 6.33 | 6.79 | 6.63 | 6.28 | 5.31 | 6.97 | 6.49 | 6.31 | 6.43 | 4.93 | 6.6 | 6.24 | 6.82 |
| O=C(CCCCCCC(=O)Nc1ccccc1)NO [Vorinostat] | 3.74 | 4.27 | 4.23 | 3.9 | 4.79 | 3.89 | 4.47 | 4.19 | 4.29 | 3.96 | 4.49 | 4.32 | 3.97 | 4.18 | 4.08 | 4.13 | 3.53 | 3.92 | 4.02 | 3.77 |
| Oc1cc(-c2nc(-c3ccccc3)[nH]c2-c2ccncc2)ccc1Cl | 4.62 | 4.79 | 4.84 | 4.39 | 5.07 | 4.9 | 4.77 | < 4.48 | 5.09 | 4.59 | < 4.48 | 4.66 | < 4.48 | 5.07 | < 4.48 | 4.4 | 4.69 | 4.78 | 4.52 | 4.59 |
| CC(C)C[C@H](NC(=O)[C@H](Cc1ccccc1)NC(=O)c1cnccn1)B(O)O [Bortezomib] | 7.33 | 8.24 | 7.44 | 8.12 | 8.26 | 7.59 | 7.98 | 7.75 | 8.3 | 7.4 | 8.07 | 7.88 | 8.02 | 6.85 | 8.32 | 7.9 | 7.81 | 8.14 | 7.48 | 7.55 |
| CC(C)[C@H](CO)Nc1nc(Nc2cccc(Cl)c2)c2ncn(C(C)C)c2n1 [Purvalanol A] | 4.57 | < 3.78 | 4.4 | < 3.78 | 4.63 | 4.14 | < 3.78 | 4.29 | 4.12 | < 3.78 | < 3.78 | 4.19 | < 3.78 | 4.15 | 4.39 | 3.87 | < 3.78 | < 3.78 | 4.91 | < 3.78 |
| CNC(=O)c1c(F)cccc1Nc1nc(Nc2cc3c(cc2OC)CCN3C(=O)CN(C)C)nc2[nH]ccc12 | 4.86 | 5.08 | 5.49 | 5.56 | 5.65 | 4.09 | 5 | 6 | 5.29 | 5.32 | 4.96 | 4.99 | 5.02 | 6.49 | 5.63 | 5.08 | 4.91 | 5.47 | 6.2 | 5.17 |

Now from value to molecule, other results behind:

| -log10 GI50 [3] | -log10 GI50 [4] | -log10 GI50 [5] | -log10 GI50 [7] | -log10 GI50 [8] | -log10 GI50 [9] | -log10 GI50 [10] | -log10 GI50 [12] | -log10 GI50 [13] | -log10 GI50 [14] | -log10 GI50 [15] | -log10 GI50 [16] | -log10 GI50 [19] | SMILES | -log10 GI50 [1] | -log10 GI50 [2] | -log10 GI50 [6] | -log10 GI50 [11] | -log10 GI50 [17] | -log10 GI50 [18] | -log10 GI50 [20] |
| --- | --- | --- | --- | --- | --- | --- | --- | --- | --- | --- | --- | --- | --- | --- | --- | --- | --- | --- | --- | --- |
| 5.34 | 4.84 | 5.44 | 6 | 6.89 | 4.76 | 6.74 | 5.08 | 4.72 | 5.58 | 5.03 | < 4.48 | 5.03 | Cc1cc(Nc2cc(N3CCN(C)CC3)nc(Sc3ccc(NC(=O)C4CC4)cc3)n2)n[nH]1 [VX-680] | 5.06 | 5.66 | 4.53 | 6.57 | 6.47 | 6.47 | 5.29 |
| 6.37 | 6.75 | 6.81 | 6.8 | 7.1 | 6.5 | 6.6 | 6.47 | 6.66 | 7.08 | 6.41 | 6.58 | 6.97 | CC(C)C[C@@H](C=O)NC(=O)[C@H](CC(C)C)NC(=O)[C@H](CC(C)C)NC(=O)OCc1ccccc1 [MG-132] | 6.3 | 7.05 | 6.69 | 6.64 | 7.27 | 6.98 | 6.26 |
| < 3.88 | < 3.88 | < 3.88 | < 3.88 | 4.42 | < 3.88 | 3.95 | < 3.88 | < 3.88 | < 3.88 | < 3.88 | < 3.88 | < 4.18 | N#Cc1c(-c2ccccc2)cc(-c2cc(Br)ccc2O)[nH]c1=O [TCS PIM-11] | < 3.88 | < 4.18 | < 3.88 | < 4.18 | 4.46 | 4.57 | 4 |
